In BindingDB's records for doi:10.1016/s0167-0115(98)00050-0 (Uppsala University, 1998):

Key:
[1] = molecular target: Neuropeptide Y receptor type 4 (Rattus norvegicus, UniProt Q63447)
[2] = molecular target: Neuropeptide Y receptor type 4 (Homo sapiens, UniProt P50391)
[3] = molecular target: Pancreatic polypeptide receptor 1 (Sus scrofa, UniProt O97505)
Pancreatic polypeptide receptor 1, sequence (O97505 whole entry): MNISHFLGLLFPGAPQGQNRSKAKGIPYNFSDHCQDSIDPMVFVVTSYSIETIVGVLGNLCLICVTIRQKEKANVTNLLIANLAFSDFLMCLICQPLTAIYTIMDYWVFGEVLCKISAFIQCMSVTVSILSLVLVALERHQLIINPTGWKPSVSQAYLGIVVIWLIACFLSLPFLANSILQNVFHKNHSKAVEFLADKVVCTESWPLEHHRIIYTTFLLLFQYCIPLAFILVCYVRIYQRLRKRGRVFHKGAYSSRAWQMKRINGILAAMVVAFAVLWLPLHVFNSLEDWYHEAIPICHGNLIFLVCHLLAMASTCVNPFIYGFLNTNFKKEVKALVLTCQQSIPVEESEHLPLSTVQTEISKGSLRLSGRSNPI

Neuropeptide Y receptor type 4 (Rattus norvegicus, UniProt Q63447), sequence (Q63447 whole entry): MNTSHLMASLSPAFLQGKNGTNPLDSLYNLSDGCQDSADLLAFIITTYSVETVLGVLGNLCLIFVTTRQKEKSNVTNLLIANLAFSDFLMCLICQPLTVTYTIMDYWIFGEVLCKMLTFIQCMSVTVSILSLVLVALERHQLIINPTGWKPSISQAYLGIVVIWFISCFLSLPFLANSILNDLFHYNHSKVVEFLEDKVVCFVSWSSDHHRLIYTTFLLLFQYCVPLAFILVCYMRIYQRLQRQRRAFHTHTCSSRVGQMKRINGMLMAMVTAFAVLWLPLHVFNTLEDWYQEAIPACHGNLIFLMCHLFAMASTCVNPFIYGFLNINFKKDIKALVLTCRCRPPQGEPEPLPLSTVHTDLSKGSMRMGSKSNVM
Neuropeptide Y receptor type 4 (Homo sapiens, UniProt P50391), sequence (P50391 whole entry C240R): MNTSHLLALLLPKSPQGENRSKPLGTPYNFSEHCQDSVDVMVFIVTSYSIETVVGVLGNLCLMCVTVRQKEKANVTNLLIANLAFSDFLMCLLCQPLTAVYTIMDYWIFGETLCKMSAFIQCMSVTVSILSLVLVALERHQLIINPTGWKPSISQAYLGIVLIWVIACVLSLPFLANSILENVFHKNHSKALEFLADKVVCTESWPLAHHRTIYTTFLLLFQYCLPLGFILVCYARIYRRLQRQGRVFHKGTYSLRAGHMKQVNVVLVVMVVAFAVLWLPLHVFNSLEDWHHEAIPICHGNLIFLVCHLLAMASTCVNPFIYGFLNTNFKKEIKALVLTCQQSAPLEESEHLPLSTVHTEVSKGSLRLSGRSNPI

Row | Ki [1] [pM] | Ki [2] [nM] | Ki [3] [nM] | Molecule
1 | 2.7 | 0.071 | 0.044 | CC[C@H](C)[C@H](NC(=O)[C@H](Cc1ccc(O)cc1)NC(=O)[C@H](CCCNC(=N)N)NC(=O)[C@H](CCCNC(=N)N)NC(=O)[C@H](CC(C)C)NC(=O)[C@H](CCC(N)=O)NC(=O)[C@@H](NC(=O)[C@H](CCC(=O)O)NC(=O)[C@H](Cc1ccc(O)cc1)NC(=O)[C@H](CCC(N)=O)NC(=O)[C@H](C)NC(=O)[C@H](CCCNC(=N)N)NC(=O)[C@H](CCC(N)=O)NC(=O)[C@H](CCC(=O)O)NC(=O)[C@H](Cc1c[nH]cn1)NC(=O)[C@@H](NC(=O)[C@H](C)NC(=O)[C@H](Cc1ccc(O)cc1)NC(=O)[C@H](CC(=O)O)NC(=O)CNC(=O)[C@@H]1CCCN1C(=O)[C@H](Cc1ccc(O)cc1)NC(=O)[C@H](CCSC)NC(=O)[C@@H]1CCCN1C(=O)[C@H](CCC(=O)O)NC(=O)[C@H](CC(C)C)NC(=O)[C@@H]1CCCN1C(=O)[C@H](C)N)[C@@H](C)O)[C@@H](C)O)C(=O)N[C@@H](CC(N)=O)C(=O)N[C@H](C(=O)N[C@@H](CC(C)C)C(=O)N[C@H](C(=O)N[C@@H](CCCNC(=N)N)C(=O)N1CCC[C@H]1C(=O)N[C@@H](CCCNC(=N)N)C(=O)N[C@@H](Cc1ccc(O)cc1)C(N)=O)[C@@H](C)O)[C@@H](C)O [NSC_41735]
2 | – | – | 0.031 | CC[C@H](C)[C@H](NC(=O)[C@H](Cc1ccc(O)cc1)NC(=O)[C@H](CCCNC(=N)N)NC(=O)[C@H](CCCNC(=N)N)NC(=O)[C@H](CC(C)C)NC(=O)[C@H](CC(=O)O)NC(=O)[C@H](C)NC(=O)[C@H](C)NC(=O)[C@H](Cc1ccc(O)cc1)NC(=O)[C@H](CCC(N)=O)NC(=O)[C@H](C)NC(=O)[C@H](CCSC)NC(=O)[C@H](CCC(N)=O)NC(=O)[C@H](CCC(=O)O)NC(=O)[C@@H]1CCCN1C(=O)[C@@H](NC(=O)[C@H](C)NC(=O)[C@H](CC(N)=O)NC(=O)[C@H](CC(=O)O)NC(=O)CNC(=O)[C@@H]1CCCN1C(=O)[C@H](Cc1ccc(O)cc1)NC(=O)[C@@H](NC(=O)[C@@H]1CCCN1C(=O)[C@H](CCC(=O)O)NC(=O)[C@H](CC(C)C)NC(=O)[C@@H]1CCCN1C(=O)[C@H](C)N)C(C)C)[C@@H](C)O)C(=O)N[C@@H](CC(N)=O)C(=O)N[C@@H](CCSC)C(=O)N[C@@H](CC(C)C)C(=O)N[C@H](C(=O)N[C@@H](CCCNC(=N)N)C(=O)N1CCC[C@H]1C(=O)N[C@@H](CCCNC(=N)N)C(=O)N[C@@H](Cc1ccc(O)cc1)C(N)=O)[C@@H](C)O [CAS_59763-91-6]
3 | 6 | 0.031 | 0.013 | H-APLEPEYPGDNATPEQMAQYAAELRRYINMLTRPRY-NH2 [CAS_59763-91-6]
